The values that follow come from article PMC8416056, “Aspulvinones Suppress Postprandial Hyperglycemia as Potent α-Glucosidase Inhibitors From Aspergillus terreus ASM-1” (Frontiers in Chemistry, 2021).

The structures appear in SMILES notation. Like-named read-outs stand apart in the source and are kept apart here.

Experiment [1] has as its system female C57BL/6J mice. Description: Oral sucrose tolerance test. The following applies: sucrose 2 g/kg BW; for decrease of the AUC (blood glucose, 0–120 min): versus negative control. It is filed as in vivo. The procedure:
(§1) Female C57BL/6J mice, 6 weeks old, weighting 16–20 g, were obtained from the Skbex Biotechenology Company Limited (Henan, China). The animals were housed in Experimental Animal Center of Zhoukou Normal University under 12 h light-dark cycle at controlled temperature (22 ± 1°C), and provided with a standard pellet diet and water ad libitum. The mice were adapted to diet and general conditions of vivarium for 1 week before the experiment. After an 16 h fasting, the mice were divided into three groups randomly (eight mice each group). […] Mice were fasted 16 h and then intragastrically (i.g.) administrated the inhibitors, 15 min later, 2 g/kg BW of sucrose or 2 g/kg BW of maltose solution was given i.g. to the animals. Blood samples were taken from the tail vein at 0, 30, 60, and 120 min after sucrose or maltose loading, and blood glucose was measured with Accu-Chek Active glucometer (Roche, Germany). Area under the curve (AUC) over 0–120 min was calculated by the trapezoidal method. All animals were cared under the frame of the China Council on Animal Care and all procedures were approved by the Health Sciences Animal Welfare Committee of Zhoukou Normal University.

Experiment [2] has as its target α-glucosidase. Conditions: ref Dewi et al., 2014; cited from earlier work.
For experiment [3], the target named is T1, α-glucosidase (Saccharomyces cerevisiae, UniProt P53341).
T1 construct: purchased
T1 sequence (P53341 whole entry): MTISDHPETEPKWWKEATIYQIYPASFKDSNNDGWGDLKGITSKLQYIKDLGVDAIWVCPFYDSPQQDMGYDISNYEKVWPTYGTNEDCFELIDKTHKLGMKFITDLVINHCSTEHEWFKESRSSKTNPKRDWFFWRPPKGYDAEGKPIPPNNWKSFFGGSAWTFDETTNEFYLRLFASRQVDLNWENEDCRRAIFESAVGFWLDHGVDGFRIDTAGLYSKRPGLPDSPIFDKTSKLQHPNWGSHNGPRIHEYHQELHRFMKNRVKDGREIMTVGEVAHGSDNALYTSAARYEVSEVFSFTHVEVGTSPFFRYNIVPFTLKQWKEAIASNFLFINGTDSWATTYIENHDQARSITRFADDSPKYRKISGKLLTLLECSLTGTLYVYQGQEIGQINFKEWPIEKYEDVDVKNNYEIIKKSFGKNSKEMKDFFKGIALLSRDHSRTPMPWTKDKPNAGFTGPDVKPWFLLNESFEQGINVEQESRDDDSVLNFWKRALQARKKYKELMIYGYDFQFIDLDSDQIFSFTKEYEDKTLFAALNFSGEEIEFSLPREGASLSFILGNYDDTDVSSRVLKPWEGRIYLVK
Description: Circular dichroism spectroscopy of α-glucosidase with inhibitor. Type of experiment: binding. Also noted: dose or concentration left out as unconfirmed. Conditions: after the addition of (molar ratios 20:1 and 40:1), 20°C. As to the method:
The CD measurements were performed in a wavelength range of 190–250 nm at a speed of 60 nm/min. All measurements were carried out at 20°C using 1.0 mm path length quartz cuvette and sodium phosphate buffer (pH 6.8) was considered as a blank. […] All the results were expressed as ellipticity in mill degrees.
A general note: CD spectra are sensitive to the conformation of chiral molecules.

Experiment [4] deals with T1, α-glucosidase. Description: Enzymatic kinetics of α-glucosidase (Lineweaver–Burk, Dixon and secondary plots). Type of experiment: biochemical. The following applies: for Inhibition mode: Lineweaver–Burk plots; for KIS: inhibitor binding with enzyme-substrate complex, vertical intercept (1/Vm) versus inhibitor concentration. The procedure: pNPG with a concentration range of 100–4,000 μM and α-glucosidase were incubated with different concentrations of inhibitor for 10 min, respectively. 20 μl of 1.0 U/ml enzyme solutions were first mixed with 10 μl of different concentrations of inhibitors, then 50 μl PBS solutions were added, and the mixed solutions were incubated at 37°C for 10 min. Subsequently, 20 μl of pNPG solutions (1.25, 2.5, 5, 10 and 20 mM) were added, and the mixed solutions were further incubated at 37°C for 25 min, the absorbance of reaction solution was measured at 405 nm every 3 min. The kinetic parameters, Michaelis–Menten (Km) and maximum velocity (Vmax), were found using Lineweaver–Burk plots to check the mode of α-glucosidase inhibition for compounds 1 and 4. The dissociation constants between inhibitor and enzyme (Ki) were calculated from Dixon plots. Two inhibition constants, KI or KIS, for inhibitor binding with either free or enzyme-substrate complex, were calculated from secondary plots of the slopes of the straight lines ([…]) or vertical intercept (1/Vmax) verse the concentration of inhibitors, respectively ([Jenis et al., 2019]).

Experiment [5] concerns the target T2, α-Glucosidase (EC:3.2.1.20, MAL12) (Saccharomyces cerevisiae, UniProt P53341).
T2 construct: purchased
Description: biochemical. As to the method: α-Glucosidase (EC:3.2.1.20, MAL12) from Saccharomyces cerevisiae was dissolved in 0.1 mol/L PBS solutions with a pH of 6.8, and diluted to be a 1.0 U/ml solution. The substrate p-nitrophenyl-[…] (pNPG) was dissolved in PBS to be a 1 mM solution. […] The absorbance of p-nitrophenol was monitored at 405 nm. […] The negative control was performed by adding PBS instead of α-glucosidase, the blank was prepared by adding solvent without tested compounds. The inhibition rate was calculated as Eq. 1: IR% =[(Ac-As)/Ac] × 100% (1) where Ac represents the absorbance of control without sample solution, and As denotes the absorbance of sample.

Experiment [6] addresses T1, α-glucosidase. As to the kind of experiment: Fluorescence quenching analysis. It is filed as binding. The following applies: for Ksv: quenching constant; for Kq: quenching rate constant, same cell as Ksv; for ∆S: van't Hoff, from 20, 31 and 37 °C (one value per inhibitor, repeated in the grid). The procedure: α-Glucosidase (1 μM) was mixed with different concentrations of inhibitors (0–15 μM) at 20, 31, and 37°C, respectively, and the fluorescence spectra of mixed solutions were determined after equilibration for 5 min at an excitation wavelength of 250 nm. Both the excitation and emission slits were set at 10 nm. The quenching rate constant (Kq), binding constant (Ka), the number of the binding sites (n), and thermodynamic parameters enthalpy change (ΔH) and entropy change (ΔS) were calculated according to the Stern-Volmer Eq. 2 and the van’t Hoff Eqs 3–5, which were listed as follows ([Xu et al., 2019]): F0/F = 1 + Ksv[Q] = 1 + Kqτ0[Q] (2) log((F0-F)/F) = logKa+ nlogQ (3) lnKa= (-1/T(ΔH/R)) + ΔS/R (4) ΔG = ΔH-TΔS (5) Where F0 and F represent the fluorescence intensities in the absence or presence of inhibitor, [Q] denote the concentration of inhibitor, τ0 is the constant of the lifetime of fluorophore (10^–8 s) and R is the gas constant of 8.31 J/(mol × K).

Experiment [7] deals with female C57BL/6J mice. The following applies: 25 mg/kg BW i.g. As to the method: as §1, with “Area under the curve (AUC) over 0–120 min was calculated by the trapezoidal method.” left out
The mark [8] stands for this setting: inhibition constant, from Dixon plots.
Where [9] appears, read: inhibitor binding with free enzyme, slope (Km/Vm) versus inhibitor concentration.
Where [10] appears, read: sample concentration which led to 50% enzyme activity loss, pNPG substrate, pH 6.8, 37°C, read-out: IC50.

T2 sequence (P53341 whole entry): as above

Turning to `C[C@H]1O[C@H](O[C@H]2[C@H](O)[C@@H](O)[C@@H](O[C@H]3[C@H](O)[C@@H](O)C(O)O[C@@H]3CO)O[C@@H]2CO)[C@H](O)[C@@H](O)[C@@H]1N[C@H]1C=C(CO)[C@@H](O)[C@H](O)[C@H]1O` (stereo partly shown) [Acarbose, reference compound], in the experiment on female C57BL/6J mice [1] (50 mg/kg BW i.g.), the “decrease of the AUC (blood glucose, 0–120 min)” value was 11.8%.
As for `O=C1O/C(=C\c2ccc(O)cc2)C(O)=C1c1ccc(O)cc1` [Aspulvinone E], the concentration for half-maximal inhibition (IC50) at α-glucosidase [2] is 2.7 µM.
On to `CC(C)=CCc1cc(/C=C2\OC(=O)C(c3cc4c(c(CC=C(C)C)c3)OC(C)(C)C=C4)=C2O)ccc1O` [Compound 1, Aspulvinone V], for which the “change of α-glucosidase CD spectrum (negative peaks at 209 and 222 nm)” value at α-glucosidase [3] is on record as “loss of the α-helix structure”. On α-glucosidase [4], the Inhibition mode result is “mixed-type”. The Ki at α-glucosidase [4] (setting [8]) is 6.6 µM; on α-glucosidase [4] (setting [9]), 3.15 µM. The molecule also showed a KIS at α-glucosidase [4] of 8.23 µM. In addition, the IC50 in experiment [5] (setting [10]) was 2.2 ± 0.4 µM. Besides, the “∆G” value at α-glucosidase [6] (31 °C) was -13.9 kJ/mol; on α-glucosidase [6] (37 °C), -12.3 kJ/mol. Moreover, at α-glucosidase [6] (at the three temperatures), the “binding constants (Ka), order of magnitude” value was ~10^5 L/mol. Further, the Kd on α-glucosidase [6] (binding constant, 20 °C, read-out: Ka (converted)) was 9.09 µM; on α-glucosidase [6] (binding constant, 31 °C, read-out: Ka (converted)) it was 3.27 µM; at α-glucosidase [6] (binding constant, 37 °C, read-out: Ka (converted)) it was 1.79 µM. The figures for the Ksv on α-glucosidase [6] (20 °C), on α-glucosidase [6] (31 °C) and at α-glucosidase [6] (37 °C) were 53500 L/mol, 78700 L/mol and 58100 L/mol, respectively. Moreover, the Kq at α-glucosidase [6] (20 °C) worked out at 5.35e+12 L/mol/s; at α-glucosidase [6] (31 °C), 7.87e+12 L/mol/s; at α-glucosidase [6] (37 °C) it was 5.81e+12 L/mol/s. In addition, the “∆S” value on α-glucosidase [6] came out at 148.2 J/mol/K.
For `CC(C)=CCc1cc(C2=C(O)C(=Cc3ccc4c(c3)CC(C(C)(C)O)O4)OC2=O)ccc1O` (stereo not shown) [Compound 2, Aspulvinone W], in experiment [5], half-maximal inhibition (IC50) required 32 ± 5.8 µM.
With `CC1(C)CCc2cc(C3=C(O)C(=Cc4ccc5c(c4)CC(C(C)(C)O)O5)OC3=O)ccc2O1` (stereo not shown) [Compound 3, Aspulvinone X], 38.6 ± 5.2 µM corresponded to half-maximal inhibition in experiment [5] (IC50).
Regarding `CC(C)=CCc1cc(/C=C2\OC(=O)C(c3ccc(O)c(CC=C(C)C)c3)=C2O)ccc1O` [Compound 4, aspulvinone H], the “blood glucose rise at 30 and 60 min” value in the experiment with female C57BL/6J mice [1] (25 mg/kg BW i.g., compared to negative control group) was “significantly suppressed”. Besides, the “decrease of the AUC (blood glucose, 0–120 min)” value in the experiment on female C57BL/6J mice [1] (25 mg/kg BW i.g.) is given as 13.2%. Also, at α-glucosidase [3], the “change of α-glucosidase CD spectrum (negative peaks at 209 and 222 nm)” value was “loss of the α-helix structure”. Further, the “postprandial blood glucose peak” value in the experiment with female C57BL/6J mice [7] (Figure 6C (maltose), versus the negative control group) is “significant decrease”. Moreover, the “reduction of the AUC for postprandial plasma glucose in 2 h” value in the experiment on female C57BL/6J mice [7] (Figure 6D (maltose 2 g/kg BW), text prints 'sucrose tolerance test') came out at 19.7%. The Inhibition mode entry at α-glucosidase [4] is listed as “mixed-type”. For the same molecule, the Ki on α-glucosidase [4] (setting [8]) came out at 6.58 µM; on α-glucosidase [4] (setting [9]), 4.7 µM. The KIS on α-glucosidase [4] turned out to be 6.62 µM. In addition, the IC50 in experiment [5] (setting [10]) worked out at 4.6 ± 1.3 µM. For the same molecule, the “∆G” value on α-glucosidase [6] (31 °C) is -12.5 kJ/mol; on α-glucosidase [6] (37 °C), -9.9 kJ/mol. Besides, the Kd was 34.5 µM at α-glucosidase [6] (Ka, binding constant, 20 °C); 12.7 µM at α-glucosidase [6] (Ka, binding constant, 31 °C); 4.31 µM on α-glucosidase [6] (Ka, binding constant, 37 °C); around 100 µM at α-glucosidase [6] (binding constants (Ka), order of magnitude, at the three temperatures). The Ksv at α-glucosidase [6] (20 °C) came to 56900 L/mol; on α-glucosidase [6] (31 °C), 55300 L/mol; on α-glucosidase [6] (37 °C), 60200 L/mol. Moreover, the Kq was determined as 5.69e+12 L/mol/s at α-glucosidase [6] (20 °C), 5.53e+12 L/mol/s on α-glucosidase [6] (31 °C) and 6.02e+12 L/mol/s at α-glucosidase [6] (37 °C). The “∆S” value on α-glucosidase [6] worked out at 240.1 J/mol/K.
For `CC(C)(O)[C@H]1Cc2cc(/C=C3\OC(=O)C(c4ccc5c(c4)C[C@H](C(C)(C)O)O5)=C3O)ccc2O1` [Compound 5, aspulvinone J-CR], the IC50 in experiment [5] stood at 44.3 ± 8.9 µM.
Still for that read-out and setting: in the case of `CC(C)=CCc1cc(/C=C2\OC(=O)C(c3cc(CC=C(C)C)c(O)c(CC=C(C)C)c3)=C2O)ccc1O` [Compound 6, aspulvinone R] it was 10.8 ± 2.3 µM.
In the case of `O=C1O/C(=C/c2ccc(O)cc2)C(O)=C1c1ccc(O)cc1` [isoaspulvinone E], the IC50 on α-glucosidase [2] is 8.92 µM.

One may read the IC50 as the concentration at which inhibition is half-maximal. In general, Ki refers to the equilibrium dissociation constant of an inhibitor or competing ligand from its target.
